# Data as given in patent publication US7723070B2, “Overexpression of aminoacyl-tRNA synthetases for efficient production of engineered proteins containing amino acid analogues” (California Institute of Technology, priority 2000, dated 2010).
# “Also recorded” adds a separate entry of the source.
# Tests used:
# [1] = system: B834(DE3) or CAG18491 hosts with pQE15/pREP4 or pQE15-MRS/pREP4; assay: Translational activity: mDHFR synthesis, statements covering several bacterial hosts (with pQE15 or pQE15-MRS); type: cell-based, E. coli; details: for target protein mDHFR in SDS-PAGE: amino acids at 60 mg/liter, both bacterial hosts; for translational activity / incorporation in hosts with increased MetRS activity: hosts overproducing MetRS
# Method: Methionine analogues were synthesized via alkylation of diethylacetamidomalonate, as previously described (As described in Example I, infra; J. C. M. van Hest, D. A. Tirrell, FEBS Lett. 1998, 428, 68-70). Cultures of B834(DE3)/pQE15-MRS/pREP4 or B834(DE3)/pQE15/pREP4 or CAG18491/pQE15-MRS/pREP4 or CAG18491/pQE15/pREP4 in M9AA media were grown to an optical density of 0.90, and the cells were sedimented by centrifugation. The M9AA medium was prepared by supplementing sterile M9 medium with […] of each of the amino acids, 1 mM MgSO4, 0.2 wt % glucose, 1 mg/ml thiamine chloride, and […] calcium chloride. The antibiotics ampicillin and kanamycin were added at concentrations of 200 mg/l and 35 mg/l, respectively.
# Cells were washed three times with M9 salts and resuspended to an optical density of 0.90 in M9 test media containing 19 amino acids plus 1) neither methionine nor analogue (negative control); 2) methionine (60 mg/liter, positive control); or 3) an analogue of interest (60 mg/liter). To test the effect of increasing the level of supplementation of the analogues, a set of experiments was also conducted in which the medium was supplemented with 500 mg/liter of methionine or the amino acid analogue. Expression of mDHFR was induced by addition of 0.4 mM isopropyl β-D-thiogalactopyranoside (IPTG), and protein synthesis was monitored after 4.5 hours.
# [2] = system: E. coli strain CAG18491/pQE15/pREP4; assay: Translational activity: mDHFR synthesis in methionine-depleted cultures of conventional host; type: cell-based; details: for Protein Yield: mDHFR from 1-liter cultures supplemented with the analogue; for translational activity: capacity to support mDHFR synthesis in absence of methionine (SDS-PAGE): methionine-depleted minimal medium, IPTG induction; for mDHFR produced relative to cultures supplemented with methionine: control yield = methionine
# Method: Buffers and media were prepared according to standard protocols (Sambrook, J.; Fritsch, E. F.; Maniatis, T. Molecular Cloning: A Laboratory Manual, 2nd Ed. Cold Spring Harbor Laboratory Press, Cold Spring Harbor, N.Y. 1989; Ausubel, F. M.; Brent, K.; Kingston, K. E.; Moore, D. D.; Scidman, J. G.; Smith, J. A.; Struhl, K. Current Protocols in Molecular Biology, John Wiley & Sons, NY 1995). The E. coli methionine auxotroph CAG18491 (λ^−, rph-1, metE3079.:Tn10) (obtained from the Yale E. coli Genetic Stock Center), was transformed with plasmids pREP4 and pQE15 (Qiagen, Valencia, Calif.), to obtain the expression host CAG18491/pQE15/pREP4.
# M9AA medium (50 mL) supplemented with 1 mM MgSO4, 0.2 wt % glucose, 1 mg/L thiamine chloride and the antibiotics ampicillin (200 mg/L) and kanamycin (25 mg/L) was inoculated with 2 mL of an overnight culture of CAG18491/pQE15/pREP4. When the turbidity of the culture reached an optical density at 600 nm (OD600) of 0.8, a medium shift was performed. The cells were sedimented for 10 min at 3030 g at 4° C., the supernatant was removed, and the cell pellet was washed twice with 20 mL of M9 medium. Cells were resuspended in 50 mL of the M9AA medium described above, without methionine. […] (0.31 mM), respectively. A culture lacking methionine (or any analogue) served as the negative control. Protein expression was induced by addition of isopropyl-β-D-thiogalactopyranoside (IPTG) to a final concentration of 0.4 mM. Samples were taken every hour for 4 h, the OD600 was measured, and the samples were sedimented. After the supernatant was decanted, the cell pellets were resuspended, in 20 μL distilled H2O.
# Protein expression was monitored by SDS polyacrylamide gel electrophoresis (12% acrylamide running gel, 12 mA, 14 h), using a normalized OD600 of 0.2 per sample.
# The example presented is for medium supplemented with 3. M9AA medium (100 mL) supplemented with 1 mM MgSO4 0.2 wt % glucose, 1 mg/L thiamine chloride and the antibiotics ampicillin (200 mg/L) and kanamycin (25 mg/L) was inoculated with E. coli strain CAG18491/pQE15/pREP4 and grown overnight at 37° C. This culture was used to inoculate 900 mL M9AA medium supplemented as described. The cells were grown to an OD600 of 0.94 and the medium shift was performed as described for the small scale experiments, followed by addition of 40 mL of 1 mg/mL DL-homopropargylglycine (3). IPTG (0.4 mM) was added, and samples were taken at 1 hour intervals. OD600 was measured, the samples were sedimented and decanted, and the cell pellets were resuspended in 20 μL distilled H2O. Protein expression was monitored by SDS polyacrylamide gel electrophoresis (12% acrylamide running gel, 12 mA, 15 h).
# Approximately 4.5 h after induction, cells were sedimented (9,800 g, 10 min, 4° C.) and the supernatant was removed. The pellet was placed in the freezer overnight. The cells were thawed for 30 min at 37° C., 30 mL of buffer (6 M guanidine-HCl, 0.1 M NaH2PO4, 0.01 M Tris, pH 8) was added and the mixture was shaken at room temperature for 1 h. […] The supernatant was loaded on 10 mL of resin which was then washed with 50 mL of guanidine buffer followed by 25 mL of urea buffer (8 M urea, 0.1 M NaH2PO4 and 0.01 M Tris, pH 8). Similar urea buffers were used for three successive 25 mL washes at pH values of 6.3, 5.9 and 4.5, respectively. […] These washes were combined and dialyzed (Spectra/Por membrane 1, MWCO=6-8 kDa) against running distilled water for 4 days, followed by batchwise dialysis against doubly distilled water for one day. […] Amino acid analyses, electrospray mass spectrometry and N-terminal protein sequencing was performed on the mDHFR isolated.
# B834(DE3)/pQE15/pREP4 = assay: Translational activity: mDHFR synthesis in control host; type: cell-based, E. coli
# From the text: Plasmid DNA from all B834(DE3)/pQE15-MRS/pREP4 cultures used for protein expression experiments was sequenced to confirm that it encoded wild-type MetRS. […] The expression plasmid also encodes an N-terminal hexahistidine sequence for mDHFR which permits purification of the target protein by immobilized metal chelate affinity chromatography (The Qiagen Expressionist, 1992, p. 45). Furthermore, mDHFR contains 8 methionine residues which can be replaced by methionine analogues. A control bacterial host, which produces only mDHFR and normal cellular levels of MetRS, was prepared by transforming B834(DE3) with pREP4 and pQE15.
# Methionine analogues were synthesized via alkylation of diethylacetamidomalonate, as previously described (As described in Example I, infra; J. C. M. van Hest, D. A. Tirrell, FEBS Lett. 1998, 428, 68-70). […]
# Cells were washed three times with M9 salts and resuspended to an optical density of 0.90 in M9 test media containing 19 amino acids plus 1) neither methionine nor analogue (negative control); 2) methionine (60 mg/liter, positive control); or 3) an analogue of interest (60 mg/liter). […] Expression of mDHFR was induced by addition of 0.4 mM isopropyl β-D-thiogalactopyranoside (IPTG), and protein synthesis was monitored after 4.5 hours.
Compound,target protein mDHFR in SDS-PAGE [1],Protein Yield [2] [mg/L],translational activity: capacity to support mDHFR synthesis in absence of methionine (SDS-PAGE) [2],Protein yields (B834(DE3)/pQE15/pREP4; supplemented cultures),translational activity / incorporation in hosts with increased MetRS activity [1],mDHFR expression (SDS-PAGE) (B834(DE3)/pQE15/pREP4; 60 mg/L),mDHFR produced relative to cultures supplemented with methionine [2],"substitution/replacement of methionine by analogue (1H NMR, amino acid analysis, N-terminal sequencing together) ([2]; mDHFR)"
"CSCC[C@H](N)C(=O)O [Analogue 1, L-methionine, reference compound]",detected,35,can be detected,approximately 35 mg/liter,–,–,–,–
2-butynylglycine [Analogue 11],–,0,neither 5 or 11 support measurable protein synthesis; also recorded: not detected; also recorded: did not support measurable levels of protein synthesis,–,permits incorporation,–,–,–
"C/C=C/CC(N)C(=O)O (racemic) [Analogue 5, trans-2-amino-4-hexenoic acid]",–,0,neither 5 or 11 support measurable protein synthesis; also recorded: prevented incorporation; also recorded: neither 4 nor 5 were indicated to be translationally active; also recorded: did not support measurable levels of protein synthesis,–,permits incorporation,not detected,–,–
"C=CCCC(N)C(=O)O (racemic) [Analogue 2, DL-2-amino-5-hexenoic acid]",detected,10,exhibit translational activity sufficient to allow protein synthesis; also recorded: serve effectively as methionine surrogates; also recorded: can be detected,–,–,–,28%,–
"C#CCCC(N)C(=O)O (racemic) [Analogue 3, DL-homopropargylglycine]",detected,35,exhibit translational activity sufficient to allow protein synthesis; also recorded: serve effectively as methionine surrogates; also recorded: can be detected,–,–,–,equivalent,near-quantitative replacement of methionine
"C=CCC(N)C(=O)O (centres unmarked) [Analogue 12, allylglycine]",not observed,–,–,–,permits incorporation,–,–,–
"CCC[C@H](N)C(=O)O [Analogue 8, L-norvaline]",not observed,–,neither norvaline (8) nor 7 showed translational activity,–,permits incorporation,–,–,–
"CCCC[C@H](N)C(=O)O [Analogue 9, L-norleucine]",detected,20,confirmed; also recorded: does support protein synthesis; also recorded: can be detected,–,–,–,57%,–
"C/C=C\CC(N)C(=O)O (racemic) [Analogue 4, cis-2-amino-4-hexenoic acid]",not observed,–,prevented incorporation; also recorded: neither 4 nor 5 were indicated to be translationally active,–,permits incorporation,–,–,–
"CCCCCC(N)C(=O)O (racemic) [Analogue 7, DL-2-aminoheptanoic acid]",not observed,–,neither norvaline (8) nor 7 showed translational activity,–,permits incorporation,–,–,–
